Data taken from article PMC8648872, “A host-directed macrocyclic peptide therapeutic for MDR gram negative bacterial infections” (Scientific Reports, 2021).
≈ marks a conversion by molar mass, not a printed value. Read-outs that look alike come from different tables or passages of the source. Where a SMILES comes first, the peptide text is derived from it. Bridges are numbered along the chain shown (N, C = ends).

What was measured:
[1] = test system: CRE and non-CRE strains of K. pneumoniae and E. coli; assay type: cell-based; details: standard CLSI assay conditions
Description: (§1) Bacterial strains were obtained from American Type Culture Collection. K. pneumoniae strains included BAA-1705 (blaKPC-2, hypermucoid), BAA-2146 (blaNDM-1), BAA-700603 (SHV-18, extended spectrum β-lactamase, ESBL), and BAA-1706 (non-CRE reference strain). E. coli strains included BAA-2340 (blaKPC-2), BAA-2471 (blaNDM-1), and ML35 (non-CRE reference strain).
(§2) Minimum inhibitory concentration (MIC) assays were performed ± 50% heat-inactivated mouse serum using Clinical and Laboratory Standards Institute (CLSI; document M07-A9) protocols. Bacteria (5 × 10^5 CFU/ml) were incubated with antibiotics or peptide for 20 h at 37 °C, and bacterial growth was determined by A620 using a SpectraMax M5e plate reader.

[2] = test system: Kp-1705 (K. pneumoniae BAA-1705); test: Kp-1705 bacteremic sepsis, survival; assay type: in vivo, BALB/c mice; details: Kp-1705 i.p. in BALB/c mice; single i.p. dose 1.25 mg/kg 1 h p.i.
Description: BALB/c mice (Jackson Laboratories) 8–10 weeks of age were acclimated (3–5 to a cage for at least 5 days prior to infection) in a thermostatically controlled room with 12 h light/dark cycle. Cryopreserved K. pneumoniae cells were thawed and adjusted to a density of 6–10 × 10^8 CFU/ml, confirmed by plating on trypticase soy agar (TSA) plates. E. coli BAA-2340 was grown to log-phase in trypticase soy broth, pelleted, washed with PBS, and resuspended in PBS at 0.5–1 × 10^9 CFU/ml. Mice were infected by i.p. injection of 2–5 × 10^8 CFU of Kp-1705 or 3–6 × 10^7 CFU of E. coli BAA-2340 using a 28 g needle in a volume of 0.5 ml. Post-infection, mice were observed three times a day for at least 4 days and then daily for 28 days. Mice were euthanized when they became moribund. All experiments used both male and female mice and were repeated at least twice.

[3] = test system: K. pneumoniae BAA-2146 (NDM-1); test: microbe, parasite or virus in culture; assay type: cell-based
Description: as §1, §2

E. coli BAA-2471 (NDM-1) = test: microbe, parasite or virus in culture; assay type: cell-based
Description: as §1, §2

E. coli BAA-2340 (KPC-2) = test: microbe, parasite or virus in culture; assay type: cell-based
Description: as §1, §2

[4] = test system: K. pneumoniae BAA-1705 (KPC-2); test: microbe, parasite or virus in culture; assay type: cell-based; details: 37 °C
Description: as §1, §2

E. coli ML35 = test: microbe, parasite or virus in culture; assay type: cell-based; details: E. coli ML35, no MDR factor
Description: as §1, §2

K. pneumoniae BAA-1706 = test: microbe, parasite or virus in culture; assay type: cell-based
Description: as §1, §2

[5] = test system: K. pneumoniae 700603 (ESBL); test: microbe, parasite or virus in culture; assay type: cell-based
Description: as §1, §2

disseminated candidiasis = details: mouse models of disseminated candidiasis; cited from earlier work
Description: MTD12813 is a bioinspired macrocyclic peptide that is structurally related to naturally occurring θ-defensins. RTD-1, the prototype θ-defensin, was identified as a broad-spectrum antimicrobial peptide in vitro[8],[9]. […] Mechanisms implicated in the moderation of cytokine-driven inflammation include modulation of NFκB and MAPK pathways, suppression of TNF release via the inhibition of the pro-TNF sheddase TACE (ADAM17)[26], and dis ...

[6] = 50% heat inactivated mouse serum
[7] = CLSI, 20 h, 37 °C, A620, no serum
[8] = E. coli BAA-2340, KPC-2, 50% heat inactivated mouse serum
[9] = E. coli BAA-2340, KPC-2, CLSI, 20 h, 37 °C, A620, no serum
[10] = CLSI M07-A9, 5 × 10^5 CFU/ml, 20 h, A620, no serum
[11] = in the presence of 50% heat inactivated mouse serum, 20 h, A620
[12] = K. pneumoniae BAA-1706, no MDR factor, 50% heat inactivated mouse serum
[13] = K. pneumoniae BAA-1706, no MDR factor, CLSI, 20 h, 37 °C, A620, no serum
[14] = Klebsiella pneumoniae, BAA2146, 50% heat inactivated mouse serum, read-out: MIC
[15] = Klebsiella pneumoniae, BAA2146, CLSI, 20 h, 37 °C, A620, no serum, read-out: MIC
[16] = Escherichia coli, BAA2471, 50% heat inactivated mouse serum, read-out: MIC
[17] = Escherichia coli, BAA2471, CLSI, 20 h, 37 °C, A620, no serum, read-out: MIC
[18] = Klebsiella pneumoniae, BAA1705, CLSI M07-A9, 5 × 10^5 CFU/ml, 20 h, A620, no serum, read-out: MIC
[19] = Escherichia coli, 50% heat inactivated mouse serum, read-out: MIC
[20] = Escherichia coli, CLSI, 20 h, 37 °C, A620, no serum, read-out: MIC
[21] = Klebsiella pneumoniae, BAA1706, K. pneumoniae BAA-1706, no MDR factor, 50% heat inactivated mouse serum, read-out: MIC
[22] = Klebsiella pneumoniae, 50% heat inactivated mouse serum, read-out: MIC
[23] = Klebsiella pneumoniae, CLSI, 20 h, 37 °C, A620, no serum, read-out: MIC

With Polymyxin B the “MIC against all seven organisms of the panel” value [1] was under 0.78 µg/mL, the “long term (≥ 28 days) survival” value [2] was 95% and the MIC [3, 6] was under 0.78 µg/mL. The MIC [3, 7] was under 0.78 µg/mL, the MIC (E. coli BAA-2471 (NDM-1); [6]) was under 0.78 µg/mL and the MIC (E. coli BAA-2471 (NDM-1); [7]) was under 0.78 µg/mL. The MIC (E. coli BAA-2340 (KPC-2); [8]) was under 0.78 µg/mL, the MIC (E. coli BAA-2340 (KPC-2); [9]) was under 0.78 µg/mL and the MIC [4, 10] was under 0.78 µg/mL. It also gave an MIC [4, 11] of under 0.78 µg/mL, an MIC (E. coli ML35; [6]) of under 0.78 µg/mL and an MIC (E. coli ML35; [7]) of under 0.78 µg/mL. It also gave an MIC (K. pneumoniae BAA-1706; [12]) of under 0.78 µg/mL, an MIC (K. pneumoniae BAA-1706; [13]) of under 0.78 µg/mL and an MIC [5, 6] of under 0.78 µg/mL. For the same molecule, the MIC [5, 7] was under 0.78 µg/mL.

Molecule `CC[C@H](C)[C@@H]1NC(=O)[C@@H]2CSSC[C@H](NC(=O)[C@H](CCCNC(=N)N)NC(=O)[C@@H]3CSSC[C@H](NC1=O)C(=O)N[C@@H]([C@@H](C)O)C(=O)N[C@@H](CCCNC(=N)N)C(=O)NCC(=O)N[C@@H](Cc1ccccc1)C(=O)N3)C(=O)N[C@@H](CC(C)C)C(=O)N[C@H]1CSSC[C@H](NC(=O)[C@H](C(C)C)NC(=O)CNC(=O)[C@H](CCCNC(=N)N)NC(=O)[C@H](CCCNC(=N)N)NC1=O)C(=O)N[C@@H](CCCNC(=N)N)C(=O)N2` [RTD-1] (cyclo(GFCRCLCRRGVCRCICTR); disulfide 3-16, 5-14, 7-12) has an MIC [3, 6] of over 100 µg/mL, an MIC [3, 7] of 100 µg/mL (≈ 48 µM) and an MIC (E. coli BAA-2471 (NDM-1); [6]) of over 100 µg/mL. The MIC (E. coli BAA-2471 (NDM-1); [7]) was 25 µg/mL (≈ 12 µM), the MIC (E. coli BAA-2340 (KPC-2); [8]) was over 100 µg/mL and the MIC (E. coli BAA-2340 (KPC-2); [9]) was 50 µg/mL (≈ 24 µM). The MIC [4, 10] was over 100 µg/mL, the MIC [4, 11] was over 100 µg/mL and the MIC (E. coli ML35; [6]) was over 100 µg/mL. For the same molecule, the MIC (E. coli ML35; [7]) was 25 µg/mL (≈ 12 µM), the MIC (K. pneumoniae BAA-1706; [12]) was over 100 µg/mL and the MIC (K. pneumoniae BAA-1706; [13]) was over 100 µg/mL. The MIC [5, 6] was over 100 µg/mL, the MIC [5, 7] was over 100 µg/mL and the “plasma Cmax as share of the MIC of the peptide” value (disseminated candidiasis) was under 1%.

For Colistin, the “MIC against all seven organisms of the panel” value [1] was under 0.78 µg/mL, the “long term (≥ 28 days) survival” value [2] was 100% and the MIC [3, 6] was under 0.78 µg/mL. For the same molecule, the MIC [3, 7] was under 0.78 µg/mL, the MIC (E. coli BAA-2471 (NDM-1); [6]) was under 0.78 µg/mL and the MIC (E. coli BAA-2471 (NDM-1); [7]) was under 0.78 µg/mL. For the same molecule, the MIC (E. coli BAA-2340 (KPC-2); [8]) was under 0.78 µg/mL, the MIC (E. coli BAA-2340 (KPC-2); [9]) was under 0.78 µg/mL and the MIC [4, 10] was under 0.78 µg/mL. It also gave an MIC [4, 11] of under 0.78 µg/mL, an MIC (E. coli ML35; [6]) of under 0.78 µg/mL and an MIC (E. coli ML35; [7]) of under 0.78 µg/mL. The MIC (K. pneumoniae BAA-1706; [12]) was under 0.78 µg/mL, the MIC (K. pneumoniae BAA-1706; [13]) was under 0.78 µg/mL and the MIC [5, 6] was under 0.78 µg/mL. For the same molecule, the MIC [5, 7] was under 0.78 µg/mL.

With `C[C@@H](O)[C@H]1C(=O)N2C(C(=O)O)=C(S[C@@H]3CN[C@H](C(=O)N(C)C)C3)[C@H](C)[C@H]12` [Meropenem] the “long term (≥ 28 days) survival” value [2] was “neither carbapenem provided significant survival benefit”, the MIC [3, 14] was over 100 µg/mL and the MIC [3, 15] was 100 µg/mL (≈ 261 µM). The MIC (E. coli BAA-2471 (NDM-1); [16]) was over 100 µg/mL, the MIC (E. coli BAA-2471 (NDM-1); [17]) was 50 µg/mL (≈ 130 µM) and the MIC (E. coli BAA-2340 (KPC-2); Escherichia coli, BAA2340) was 6.25 µg/mL (≈ 16.3 µM). For the same molecule, the MIC (E. coli BAA-2340 (KPC-2); Escherichia coli, BAA2340, 20 h) was 6.25 µg/mL (≈ 16.3 µM), the MIC [4, 18] was 50 µg/mL (≈ 130 µM) and the MIC [4, 11] was 50 µg/mL. It also gave an MIC (E. coli ML35; [19]) of under 0.78 µg/mL, an MIC (E. coli ML35; [20]) of under 0.78 µg/mL and an MIC (K. pneumoniae BAA-1706; Klebsiella pneumoniae, BAA1706, 20 h) of 1.56 µg/mL (≈ 4.07 µM). It also gave an MIC (K. pneumoniae BAA-1706; [21]) of under 0.78 µg/mL, an MIC [5, 22] of under 0.78 µg/mL and an MIC [5, 23] of under 0.78 µg/mL.

With `C[C@@H](O)[C@H]1C(=O)N2C(C(=O)O)=C(SCCN=CN)C[C@H]12` [Imipenem] the “long term (≥ 28 days) survival” value [2] was “neither carbapenem provided significant survival benefit”, the MIC [3, 14] was 25 µg/mL (≈ 83.5 µM) and the MIC [3, 15] was over 100 µg/mL. It also gave an MIC (E. coli BAA-2471 (NDM-1); [16]) of 25 µg/mL (≈ 83.5 µM), an MIC (E. coli BAA-2471 (NDM-1); [17]) of 50 µg/mL (≈ 167 µM) and an MIC (E. coli BAA-2340 (KPC-2); Escherichia coli, BAA2340) of 6.25 µg/mL (≈ 20.9 µM). For the same molecule, the MIC (E. coli BAA-2340 (KPC-2); Escherichia coli, BAA2340, E. coli BAA-2340, KPC-2, CLSI, 20 h, 37 °C, A620, no serum, read-out: MIC) was 25 µg/mL (≈ 83.5 µM), the MIC ([4]; Klebsiella pneumoniae, BAA1705, 20 h, in the presence of 50% heat inactivated mouse serum, A620) was 12.5 µg/mL and the MIC [4, 18] was over 100 µg/mL. For the same molecule, the MIC (E. coli ML35; [19]) was under 0.78 µg/mL, the MIC (E. coli ML35; [20]) was under 0.78 µg/mL and the MIC (K. pneumoniae BAA-1706; [21]) was under 0.78 µg/mL. For the same molecule, the MIC (K. pneumoniae BAA-1706; Klebsiella pneumoniae, BAA1706, K. pneumoniae BAA-1706, no MDR factor, CLSI, 20 h, 37 °C, A620, no serum, read-out: MIC) was 3.13 µg/mL (≈ 10.5 µM), the MIC [5, 22] was under 0.78 µg/mL and the MIC [5, 23] was under 0.78 µg/mL.
